One data set has as its system NF1^NS/− Schwann cells. In words: Western blot of neurofibromin and p-ERK in NF1^NS/− Schwann cells (LOH) treated with nonsense suppression drugs. Format: cell-based, minipig. The settings on record: concentrations of Table S2, 24, 48 or 72 h. As for the experimental part: (§1) Schwann cells were isolated as previously described.[9]^,[18] Sciatic nerve or cutaneous neurofibroma were biopsied from WT or NF1^R1947/+ minipigs and transported in Dulbecco’s Modified Eagle’s Medium (DMEM; Thermo) containing 10% fetal bovine serum (FBS; Thermo) and 1% Antibiotic/Antimycotic (AA; Thermo). In a laminar flow hood, specimens were rinsed in 70% ethanol and phosphate-buffered saline (PBS; VWR 16750-078) by briefly dipping into each solution 10 times. Tissues were minced and incubated at 37°C, 5% CO2 in dissociation media containing DMEM with 10% FBS, 1% AA, 1x collagenase A (Thermo), and 1x dispase II (Roche) overnight in a Petri dish, then transferred to a conical and centrifuged at 270 × g for 5 min. Cells were plated onto a poly-L-lysine (0.05 mg/mL) and laminin-coated (10 μg/mL) six-well plate and cultured in complete media containing DMEM with high-glucose (GIBCO) supplemented with 10% FBS (GIBCO), forskolin (2 μM) (Calbiochem), 1% N2 supplement (Thermo), recombinant human neuregulin-b1 (NRG1) (10 ng/mL) (R&D Systems), and 1% AA. Media was replaced every 2 days. Schwann cells were separated from contaminating fibroblasts via magnetic cell selection, as described.[9]^,[18] Purified Schwann cells were expanded and stored in liquid nitrogen at low passage and vials were thawed immediately prior to use in experiments to maintain low-passage cells.
(§2) For extraction of protein from cells, snap frozen pellets were briefly thawed on ice and resuspended in RIPA buffer (Sigma) containing protease (Sigma) and phosphatase inhibitors (Sigma), then vortexed at 2,000 rpm at 4°C for 20 min, then centrifuged at 4°C for 15 min at 20,000 × g. For extraction of protein from tissues, snap frozen tissues were thawed briefly on ice, then 50 to 80 mg of tissue was transferred to a 2-mL microtube containing ceramic homogenizers (Agilent Technologies) and homogenized using a Bead Blaster (Benchmark Scientific) at 4,260 rpm, 7 m/s linear speed, 3 cycles of 30 s at 4°C. Homogenates were centrifuged at 13,000 rpm for 3 min at 4°C, then supernatants were transferred to new tubes and sonicated at an amplitude of 20A for 10 s at 4°C, vortexed at 2,000 rpm at 4°C for 20 min, then centrifuged at 20,000 × g at 4°C for 15 min.
(§3) Protein lysates from cells or tissues were quantified using a BCA assay (Thermo). Twenty to 30 μg of protein was denatured at 95°C for 5 min and separated by electrophoresis using SDS on 1.5-mm NuPAGE 4–12% Bis-Tris protein gels (Thermo). Protein was transferred to Immun-Blot PVDF Membrane (Bio-Rad) overnight (16–20 h) at 18 V, 4°C. Membranes were cut according to target molecular weights and blocked at room temperature (RT) for 1 h using 5% blocking grade buffer (Bio-Rad) in TBST (Tris-buffered saline, 0.1% Tween 20) (Sigma). Membranes were incubated with primary antibody overnight at 4°C and washed with TBST three times for 5 min at RT, then incubated with horseradish peroxidase-conjugated secondary antibody for 1 h at RT and washed again as described above. All washes and incubations were performed on a rocking platform. Blots were developed with the WesternBright Quantum Kit (Advansta). Bands were imaged using the Li-Cor Odyssey Fc Imaging System, quantified by densitometry, and normalized to HSP90.
Ataluren (MedChem Express) was reconstituted in sterile dimethyl sulfoxide (DMSO) to a stock concentration of 10 mM and stored at −80°C. Cells were seeded in complete media at a density of 0.3 × 10^6 cells/plate in 10-cm plates. Media was changed 24 h later to complete media without AA and containing vehicle or drugs at indicated concentrations. Cells were harvested 24, 48, and 72 h after drug treatment and divided for protein and/or RNA extraction.
For orientation: A western blot detects proteins with antibodies after separation by electrophoresis.

Details of data set [1]: method as in PMID 33978635. Particulars: NF1 minipigs compared with WT minipigs; cited from earlier work.
For data set [2] the following is noted: NF1 minipig (NF1^R1947*/+), in vivo, 30 min. The protocol:
Tissues were prepared with a homogenization solution containing collagenase.

The subject of a further data set is NF1^NS/+ Schwann cells. The data set can be described thus: Western blot of neurofibromin and p-ERK in NF1^NS/+ Schwann cells treated with nonsense suppression drugs. Format: cell-based, minipig. The settings on record: for neurofibromin increase in NF1^NS/+ Schwann cell cultures: multiple concentrations (Table S2), 24, 48 or 72 h, 3 biological replicates. The protocol:
as §1, §2, §3
Ataluren (MedChem Express) was reconstituted in sterile dimethyl sulfoxide (DMSO) to a stock concentration of 10 mM and stored at −80°C. […]

The conditions of data set [3]: human patients with DMD or CF, once daily intravenous infusion 7.5–10 mg/kg; cited from earlier work.
For data set [4] the following is noted: murine models of DMD and CF, subcutaneous once daily 34 mg/kg, suppresses PTCs; cited from earlier work.
The test system of data set [5] is neurofibromin and p-ERK protein levels. The data set can be described thus: Pharmacodynamics: western blot of neurofibromin and p-ERK in NF1 minipig tissues. The format is in vivo. The settings on record: treated (n = 5) vs untreated controls (n = 4), sc 8.25 mg/kg daily 14 days. The source says: (§4) Tissue samples (skin, sciatic nerve, optic nerve, and cortex) were collected from each animal at the same approximate locations and divided for analysis.

A further data set is described as follows: in vivo. The settings on record: sc. As for the experimental part:
Human equivalent doses (HED) were determined by allometric scaling using the standard conversion coefficient (Km), where Km = 1.1 for minipig and HED determination. Consequently, a 7.5-mg/kg human equivalent dose was 8.25 mg/kg. The required volume of drug for each animal was then based on individual body weight and determined on the day of administration.
as §4
Plasma isolations were performed as described in a previous study.[10] Briefly, serial whole blood samples (1.5 mL) were collected from the jugular vein into lithium heparin vacutainer tubes. Samples were immediately transferred to a 1.7-mL microfuge tube and centrifuged at 2,000 × g for 10 min at 4°C. Supernatant (plasma) was transferred to a cryovial and stored at −80°C until analysis. […] Assay analytical measurement ranged from 0.2 to 12 mg/L, and samples with results higher than 12 mg/L were diluted appropriately and re-analyzed. Within-run precision is 0.3% CV, between-day precision is 0.4% CV, and accuracy is 99.8% (correlation coefficient). For each tissue type (skin, sciatic nerve, optic nerve, and cerebral cortex), samples were analyzed commercially using liquid chromatography with tandem mass spectrometry (LC-MS/MS; BioAgilytix, San Diego, CA). […] Standard curves and quality controls were prepared with untreated tissues. Tissues were prepared with a homogenization solution containing collagenase. […] The LC-MS/MS system consisted of a Waters Acquity UPLC (Milford, MA) coupled with a Waters Xevo TQ-S Micro Triple Quad mass spectrometer (Milford, MA). Mass transition data were acquired in electrospray positive ion (ESI^+) mode and captured using MassLynx 4.1 (Waters, Milford, MA).
Pharmacokinetic parameters and measures of systemic exposure included area under the concentration-time curve (AUC; linear up, log down), maximum concentration (Cmax), time to Cmax (Tmax), and half-life (t1/2).

The nature of data set [6]: Tolerability and renal parameters in NF1 minipigs. Format: in vivo, minipig. Particulars: sc 8.25 mg/kg once daily for 14 days.
The subject of data set [7] is NF1^R1947∗ mutation dual luciferase reporter in NF1^NS/− Schwann cells. In words: Dual luciferase reporter (DLR) readthrough assay in minipig Schwann cells. The format is cell-based. The settings on record: minipig NF1^NS/− cNF Schwann cells, 48 h, normalized to Renilla. An excerpt:
(§5) The NF1^R1497X DLR plasmid was kindly provided by David Bedwell at University of Alabama. The Renilla-NF1-R1947X-Firefly insert contains 30 nucleotides surrounding the premature termination codon in NF1-R1947X inserted between the Renilla and Firefly genes. The 30-base pair readthrough cassette contains NF1^R1497X (G TCGACGGATGCCAAATGACAAAGAGTTGGATCC). Plasmids were amplified in DH5a E. coli using ampicillin selection and purified using a Qiagen miniprep kit, according to the manufacturer’s protocol. To produce stable cell cultures, we used Gateway cloning to transfer the DLR insert to a hygromycin-resistant PiggyBac Sleeping Beauty (PBSB) transposon vector. Briefly, a GBlock containing the DLR insert sequence and attB sites was cloned into the pDONR221 vector using BP clonase to produce pENTR-Renilla-NF1-R1947X-Firefly. This was cloned into the PBSB vector using LR clonase to produce pPBSB-CG-Renilla-NF1-R1947X-Firefly-PGK-Hygro, which was confirmed by DNA sequencing. Schwann cells were grown to 80% confluency and transfected with the PBSB transposon and PB7 (PiggyBac transposase) (5 μg each/ 1million cells) using the Neon electroporation system (Invitrogen #MPK10096). […] The DLR assay system (Promega) was used to detect readthrough, according to the manufacturer’s instructions. Luminescence was measured using the Cytation 5 plate reader. […]
In general terms: A reporter such as luciferase makes a cellular process visible.

The subject of data set [8] is NF1^R1947∗ mutation dual luciferase reporter in iPNF95.6 cells. The data set can be described thus: Dual luciferase reporter (DLR) readthrough assay in human Schwann cells. The settings on record: human Schwann cells iPNF95.6, 48 h, normalized to Renilla. The format is cell-based.
From the text: as §5

The mark [9] stands for this setting: NF1^NS/+ Schwann cells, 100 μg/mL, 48 h.

Like-named read-outs stand apart in the source and are kept apart here.

As for `O=C(O)c1cccc(-c2noc(-c3ccccc3F)n2)c1` [ataluren], in the data set with NF1^NS/− Schwann cells, the “nonsense suppression through expression of neurofibromin” value (“nonsense suppression through expression” below) is listed as “no indication of nonsense suppression through expression of neurofibromin” and the “reduction in p-ERK” value is given as “not a corresponding reduction in p-ERK”.

For `Cn1cnc2c(F)c(Nc3ccc(Br)cc3Cl)c(C(=O)NOCCO)cc21` [selumetinib], the “concentration in the brain” value in [1] was “reaches higher concentrations in the brain of NF1 minipigs compared with WT minipigs”.

On to `CNC(C)C1CCC(N)C(OC2C(N)CC(N)C(OC3OCC(C)(O)C(NC)C3O)C2O)O1` (centres unmarked) [gentamicin], for which the “difference of mean tissue concentrations from cortex (lowest) to sciatic nerve (highest)” value in [2] is “up to 8 fold”. Besides, in the data set on NF1^NS/+ Schwann cells (NF1^NS/+ Schwann cells, 250 or 500 μg/mL, 48 h, not replicated in other cultures), the “neurofibromin, dose trend” value is “linear increase in neurofibromin at 48 h in one replicate”. In addition, the “neurofibromin increase in NF1^NS/+ Schwann cell cultures” value with NF1^NS/+ Schwann cells is “not consistent between replicates or did not exhibit a dose- or time-dependent increase”. Moreover, the “nonsense suppression through expression” value in the data set on NF1^NS/− Schwann cells is given as “no indication of nonsense suppression through expression of neurofibromin”. Besides, in the data set on NF1^NS/− Schwann cells, the “reduction in p-ERK” value is “not a corresponding reduction in p-ERK”. The Cmax – broadly, the peak of the concentration-time curve – is 20000 to 40000 ng/mL in data set [3]; 38000 ng/mL in “in vivo” (NF1 minipig, 8.25 mg/kg, Cmax); 38000 ng/mL in “in vivo” (Ossabaw, minipig, 8.25 mg/kg, mean Cmax); 40000 ng/mL in the data set “in vivo” (Ossabaw, minipig, 8.25 mg/kg, target Cmax reached). In addition, the “peak plasma concentration (Cmax)” value in data set [4] is 40000 to 60000 ng/mL. For the same compound, the “neurofibromin protein expression in other tissues (cortex, sciatic nerve)” value in data set [5] was “no significant change”. In data set [5], the “p-ERK downregulation in tissues (optic nerve, cortex, sciatic nerve, skin)” value was “not significant in any tissues”. The “neurofibromin protein expression in optic nerve tissue” value in data set [5] (p = 0.01) was “higher”. In addition, the half-life (as a rule, the time in which the quantity being followed falls by half) in “in vivo” (NF1 minipig, 8.25 mg/kg, t1/2) is 1.82 h. Besides, the “changes in PK parameters after 14 days” value in the data set “in vivo” (minipig) is recorded as “no significant changes in PK parameters”. Moreover, in data set [6], the “tolerability, renal parameters including serum creatinine and blood urea nitrogen” value is reported as “well tolerated with no significant changes in renal parameters”.

As to `CN[C@@H]1[C@@H](O)[C@@H](O[C@@H]2[C@@H](O)[C@H](O[C@H]3O[C@H]([C@@H](C)O)[C@@H](O)[C@H](O)[C@H]3N)[C@@H](N)C[C@H]2N)OC[C@]1(C)O` [G418], in the data set on NF1^NS/+ Schwann cells (setting [9]), the neurofibromin entry is “increased in all three replicates” and the p-ERK entry was “paradoxically increased”. Also, the “neurofibromin increase in NF1^NS/+ Schwann cell cultures” value in the data set on NF1^NS/+ Schwann cells is on record as “not consistent between replicates or did not exhibit a dose- or time-dependent increase”. Also, in the data set with NF1^NS/− Schwann cells, the “nonsense suppression through expression” value is “no indication of nonsense suppression through expression of neurofibromin” and the “reduction in p-ERK” value is listed as “not a corresponding reduction in p-ERK”. For the same compound, the “firefly luciferase activity compared with vehicle-treated cells” value in data set [7] is “significant and dose-dependent increase”. The “firefly luciferase activity compared with vehicle-treated cells” value in data set [8] was “significant and dose-dependent increase”.

Values taken from publication PMC10384610, “Combining nonsense mutation suppression therapy with nonsense-mediated decay inhibition in neurofibromatosis type 1” (Molecular Therapy. Nucleic Acids, 2023).
